Results from PubChem BioAssay (NCI).
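1) Cells in 96-well plates. 2) Compound, 48 h, 5 concentrations. 3) Linear interpolation between surrounding doses. 4) Unreached endpoint = highest concentration. Here, GI50 denotes the concentration required for 50% inhibition of growth. At the TGI there is no net growth.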

Tests used:
Assay in all cases: NCI tumour cell line growth inhibition, 48 h
NCI-H226 lung = test system: NCI-H226 lung
NCI-H23 lung = test system: NCI-H23 lung
NCI-H460 lung = test system: NCI-H460 lung
NCI-H522 lung = test system: NCI-H522 lung
NCI/ADR-RES ovarian = test system: NCI/ADR-RES ovarian
OVCAR-4 ovarian = test system: OVCAR-4 ovarian
OVCAR-5 ovarian = test system: OVCAR-5 ovarian
OVCAR-8 ovarian = test system: OVCAR-8 ovarian
PC-3 prostate = test system: PC-3 prostate
RXF 393 renal = test system: RXF 393 renal
SF-268 CNS = test system: SF-268 CNS
SF-295 CNS = test system: SF-295 CNS
SF-539 CNS = test system: SF-539 CNS
SK-MEL-2 melanoma = test system: SK-MEL-2 melanoma
SK-MEL-28 melanoma = test system: SK-MEL-28 melanoma
SK-MEL-5 melanoma = test system: SK-MEL-5 melanoma
SK-OV-3 ovarian = test system: SK-OV-3 ovarian
SN12C renal = test system: SN12C renal
SNB-19 CNS = test system: SNB-19 CNS
SNB-75 CNS = test system: SNB-75 CNS
SR leukemia = test system: SR leukemia
SW-620 colon = test system: SW-620 colon
T-47D breast = test system: T-47D breast
TK-10 renal = test system: TK-10 renal
U251 CNS = test system: U251 CNS
UACC-257 melanoma = test system: UACC-257 melanoma
UACC-62 melanoma = test system: UACC-62 melanoma
UO-31 renal = test system: UO-31 renal

NS(=O)(=O)c1ccc(Nc2nc(N/N=C/c3ccc(C(F)(F)F)cc3)nc(Nc3ccccc3)n2)cc1
TGI (NCI-H226 lung): 6.22 µM
GI50 (NCI-H23 lung): 1.95 µM
TGI (NCI-H23 lung): 4.25 µM
GI50 (NCI-H460 lung): 3.02 µM
TGI (NCI-H460 lung): 8.89 µM
GI50 (NCI-H522 lung): 2.66 µM
TGI (NCI-H522 lung): 7.77 µM
GI50 (NCI/ADR-RES ovarian): 12.3 µM
TGI (NCI/ADR-RES ovarian): 75.7 µM
GI50 (OVCAR-4 ovarian): 3.69 µM
TGI (OVCAR-4 ovarian): 64.8 µM
GI50 (OVCAR-5 ovarian): 2.96 µM
TGI (OVCAR-5 ovarian): 11 µM
GI50 (OVCAR-8 ovarian): 2.82 µM
TGI (OVCAR-8 ovarian): 10.4 µM
GI50 (PC-3 prostate): 2.8 µM
TGI (PC-3 prostate): 9.72 µM
GI50 (RXF 393 renal): 1.82 µM
TGI (RXF 393 renal): 4.65 µM
GI50 (SF-268 CNS): 3.51 µM
TGI (SF-268 CNS): 14 µM
GI50 (SF-295 CNS): 1.92 µM
TGI (SF-295 CNS): 4.07 µM
GI50 (SF-539 CNS): 1.86 µM
TGI (SF-539 CNS): 4.23 µM
GI50 (SK-MEL-2 melanoma): 2.17 µM
TGI (SK-MEL-2 melanoma): 5 µM
GI50 (SK-MEL-28 melanoma): 2.44 µM
TGI (SK-MEL-28 melanoma): 7.37 µM
GI50 (SK-MEL-5 melanoma): 1.74 µM
TGI (SK-MEL-5 melanoma): 3.18 µM
GI50 (SK-OV-3 ovarian): 3.66 µM
TGI (SK-OV-3 ovarian): 33.8 µM
GI50 (SN12C renal): 3 µM
TGI (SN12C renal): 10.2 µM
GI50 (SNB-19 CNS): 3.46 µM
TGI (SNB-19 CNS): 11.4 µM
GI50 (SNB-75 CNS): 2.05 µM
TGI (SNB-75 CNS): 6.24 µM
GI50 (SR leukemia): 3.07 µM
TGI (SR leukemia): 15.3 µM
GI50 (SW-620 colon): 3.3 µM
TGI (SW-620 colon): 11.1 µM
GI50 (T-47D breast): 2.48 µM
TGI (T-47D breast): 9.78 µM
GI50 (TK-10 renal): 3.45 µM
TGI (TK-10 renal): 10.5 µM
GI50 (U251 CNS): 2.68 µM
TGI (U251 CNS): 11.3 µM
GI50 (UACC-257 melanoma): 2.42 µM
TGI (UACC-257 melanoma): 7.26 µM
GI50 (UACC-62 melanoma): 2.35 µM
TGI (UACC-62 melanoma): 5.33 µM
GI50 (UO-31 renal): 1.88 µM
TGI (UO-31 renal): 4.64 µM
